The results in this text go back to patent US11597703B2, “Caspase inhibitors and methods of use thereof” (Histogen Inc., priority 2019, dated 2023).

One may read the IC50 as the concentration at which inhibition is half-maximal.

One experiment addresses T1, Caspase-1 (Homo sapiens, UniProt P29466).
T1 construct: purchased Enzo Biosciences
T1 sequence (P29466 120-297 limits assumed): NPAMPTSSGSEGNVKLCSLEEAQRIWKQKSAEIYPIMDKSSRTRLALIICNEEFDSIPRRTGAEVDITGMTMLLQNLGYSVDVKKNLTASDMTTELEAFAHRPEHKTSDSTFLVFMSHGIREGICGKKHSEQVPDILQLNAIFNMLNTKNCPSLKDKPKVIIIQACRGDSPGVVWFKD
T1 sequence (P29466 317-404 limits assumed): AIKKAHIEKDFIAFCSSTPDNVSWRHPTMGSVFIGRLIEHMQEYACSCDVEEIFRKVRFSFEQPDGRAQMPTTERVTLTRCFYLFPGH
In words: Caspase-1 enzyme inhibition assay (Ac-YVAD-pNA substrate), IC50. The format is biochemical. As for the experimental part:
(§1) Human caspases were purchased from Enzo Biosciences and used according to the manufacturer's instructions. An exemplary caspase assay, for Caspase-1, is provided below:
Caspase-1 was diluted to 10 U/μl in assay buffer consisting of 50 mM HEPES, pH 7.4, 100 mM NaCl, 0.1% CHAPS, 1 mM EDTA, 10% glycerol and 10 mM DTT.
45 μl of assay buffer was added into ½ volume microtiter plate. The plate was allowed to equilibrate to assay temperature. 5 μl of Caspase-1 (10 U/μl) was added to each appropriate well. Two 2 blank wells containing assay buffer alone without Caspase-1 were included on the plate.
The reaction was started by the addition of 50 μl Ac-YVAD-pNA substrate, for a final substrate concentration of 200 μM. The reaction was continuously monitored at 405 nm. The data was graphed as OD405 nm vs time, and the slope was determined over the linear portion of the curve. The rates in OD/min were converted to substrate/min using an extinction coefficient for p-nitroaniline of 10,500M-1 cm-1, and were adjusted for pathlength of sample. […]

In the next experiment the target is T2, Caspase-3 (Homo sapiens, UniProt P42574).
T2 construct: purchased Enzo Biosciences
T2 sequence (P42574 29-175 limits assumed): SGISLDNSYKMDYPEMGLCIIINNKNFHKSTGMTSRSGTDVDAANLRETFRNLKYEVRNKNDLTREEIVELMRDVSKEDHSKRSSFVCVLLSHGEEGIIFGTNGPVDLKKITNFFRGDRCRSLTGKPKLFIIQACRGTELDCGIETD
T2 sequence (P42574 176-277 limits assumed): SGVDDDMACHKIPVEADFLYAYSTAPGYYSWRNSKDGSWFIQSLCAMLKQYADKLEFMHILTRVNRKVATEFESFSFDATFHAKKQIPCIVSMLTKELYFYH
As to the kind of experiment: Caspase-3 enzymatic inhibition assay, IC50. The format is biochemical. To be noted: read-out: Caspase 3 enzyme inhibition IC50. As for the experimental part: as §1
(§2) Enzymatic assays were conducted for Caspase-3, 6 and 7 activity according to the manufacture's instructions.

Another experiment deals with T3, Caspase 6 (Homo sapiens, UniProt P55212).
T3 construct: purchased Enzo Biosciences
T3 sequence (P55212 24-179 limits assumed): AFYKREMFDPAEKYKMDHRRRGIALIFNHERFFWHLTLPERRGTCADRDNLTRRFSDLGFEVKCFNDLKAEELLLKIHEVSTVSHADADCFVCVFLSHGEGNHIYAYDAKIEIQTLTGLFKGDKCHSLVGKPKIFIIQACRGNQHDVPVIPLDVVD
T3 sequence (P55212 194-293 limits assumed): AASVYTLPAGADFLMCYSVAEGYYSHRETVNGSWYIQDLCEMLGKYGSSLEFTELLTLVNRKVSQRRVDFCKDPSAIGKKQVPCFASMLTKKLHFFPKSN
In words: Caspase 6 enzymatic inhibition assay, IC50. The experiment is classed as biochemical. The settings on record: read-out: Caspase 6 enzyme inhibition IC50. As for the experimental part:
as §1, §2

For another experiment, the target named is T4, Caspase 7 (Homo sapiens, UniProt P55210).
T4 construct: purchased Enzo Biosciences
T4 sequence (P55210 24-198 limits assumed): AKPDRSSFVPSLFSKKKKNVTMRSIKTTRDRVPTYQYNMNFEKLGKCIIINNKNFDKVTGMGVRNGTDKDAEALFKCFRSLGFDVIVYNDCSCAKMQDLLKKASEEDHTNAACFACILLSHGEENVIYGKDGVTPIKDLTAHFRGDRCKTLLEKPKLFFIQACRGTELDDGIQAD
T4 sequence (P55210 207-303 limits assumed): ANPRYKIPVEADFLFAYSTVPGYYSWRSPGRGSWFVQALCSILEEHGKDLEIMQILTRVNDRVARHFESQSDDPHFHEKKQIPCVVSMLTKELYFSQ
As to the kind of experiment: Caspase 7 enzymatic inhibition assay, IC50. The experiment is classed as biochemical. The settings on record: read-out: Caspase 7 enzyme inhibition IC50. As for the experimental part: as §1, §2

Another experiment relates to IL-1β. In words: Inhibition of LPS-stimulated IL-1β in THP-1 cells (ELISA). The format is cell-based, human. The settings on record: 10 micromolar. As for the experimental part: Compounds in the present invention were tested in THP-1 cells, a human monocyte cell line, to assess the inhibition of the inflammatory cytokine IL-1β. THP-1 cells (ATCC TIB-202) were grown in culture and seeded in 96 well plates at a concentration of 200,000 cells per well with a total volume of 150 μL. Plated cells were incubated overnight at 37 degrees C. under an atmosphere of 5% CO2. Media was removed from cells which were washed with PBS. Test compounds were diluted in DMSO stock solution and serially diluted appropriately for initial screening and IC50 determinations. LPS in serum free media (140 μL of […]) was added to each well to stimulate IL-1β production. IL-1β was measured by ELISA assay kit (R&D Systems) per the manufacturers instructions.
IC50 values for the inhibition of IL-1 in THP 1 cells were determined from dose response studies.
In general terms: An ELISA detects its analyte on a solid surface through an enzyme-linked reagent.

Turning to `C[C@H](NC(=O)C(=O)Nc1cccc(-c2nnn[nH]2)c1)C(=O)N[C@@H](CCC(=O)O)C(=O)COc1c(F)c(F)cc(F)c1F` [Example 31, (S)-4-((S)-2-(2-((3-(1H-tetrazol-5-yl)phenyl)amino)-2-oxoacetamido)propanamido)-5-oxo-6-(2,3,5,6-tetrafluorophenoxy)hexanoic acid], the IC50 is no more than 0.01 µM on Caspase-1, no less than 1 µM on Caspase-3, no less than 1 µM at Caspase 6 and no less than 1 µM on Caspase 7.
For the compound `C[C@H](NC(=O)C(=O)Nc1ccccc1C#N)C(=O)N[C@@H](CCC(=O)O)C(=O)COc1c(F)c(F)cc(F)c1F` [Example 32, (S)-4-((S)-2-(2-((2-cyanophenyl)amino)-2-oxoacetamido)propanamido)-5-oxo-6-(2,3,5,6-tetrafluorophenoxy)hexanoic acid], the half-inhibitory concentration (IC50) on Caspase-1 is no more than 0.01 µM; on Caspase-3, no less than 1 µM; at Caspase 6, no less than 1 µM; at Caspase 7 it was no less than 1 µM.
Consider `C[C@H](NC(=O)C(=O)Nc1c(F)cccc1F)C(=O)N[C@@H](CCC(=O)O)C(=O)COc1cc(C(F)(F)F)nc(C(F)(F)F)n1` [Example 33, (S)-6-((2,6-bis(trifluoromethyl)pyrimidin-4-yl)oxy)-4-((S)-2-(2-((2,6-difluorophenyl)amino)-2-oxoacetamido)propanamido)-5-oxohexanoic acid], for which the 50% inhibitory concentration (IC50) on Caspase-1 is no more than 0.01 µM; at Caspase-3, no less than 1 µM; on Caspase 6, no less than 1 µM; on Caspase 7 it was no less than 1 µM.
Consider `C[C@H](NC(=O)C(=O)Nc1ccc(OC(F)(F)F)cc1)C(=O)N[C@@H](CCC(=O)O)C(=O)COc1c(F)c(F)cc(F)c1F` [Example 34, (S)-5-oxo-4-((S)-2-(2-oxo-2-((4-(trifluoromethoxy)phenyl)amino)acetamido)propanamido)-6-(2,3,5,6-tetrafluorophenoxy) hexanoic acid], for which the 50% inhibitory concentration (IC50) at Caspase-1 is no more than 0.01 µM; at Caspase-3, no less than 1 µM; at Caspase 6, no less than 1 µM; on Caspase 7 it was no less than 1 µM.
Turning to `C[C@H](NC(=O)C(=O)Nc1cnc2ccccc2c1)C(=O)N[C@@H](CCC(=O)O)C(=O)COc1c(F)c(F)cc(F)c1F` [Example 35, (S)-5-oxo-4-((S)-2-(2-oxo-2-(quinolin-3-ylamino)acetamido)propanamido)-6-(2,3,5,6-tetrafluorophenoxy)hexanoic acid], the IC50 was no more than 0.01 µM against Caspase-1, no less than 1 µM on Caspase-3, no less than 1 µM on Caspase 6 and no less than 1 µM at Caspase 7.
Consider `C[C@H](NC(=O)C(=O)Nc1cccc2cccnc12)C(=O)N[C@@H](CCC(=O)O)C(=O)COc1c(F)c(F)cc(F)c1F` [Example 36, (S)-5-oxo-4-((S)-2-(2-oxo-2-(quinolin-8-ylamino)acetamido)propanamido)-6-(2,3,5,6-tetrafluorophenoxy)hexanoic acid], for which the IC50 at Caspase-1 was no more than 0.01 µM; at Caspase-3, no less than 1 µM; on Caspase 6, no less than 1 µM; on Caspase 7, no less than 1 µM.
`C[C@H](NC(=O)C(=O)Nc1ccncc1)C(=O)N[C@@H](CCC(=O)O)C(=O)COc1c(F)c(F)cc(F)c1F` [Example 37, (S)-5-oxo-4-((S)-2-(2-oxo-2-(pyridin-4-ylamino)acetamido)propanamido)-6-(2,3,5,6-tetrafluorophenoxy)hexanoic acid]: the IC50 against Caspase-1 was no more than 0.01 µM; at Caspase-3, no less than 1 µM; on Caspase 6, no less than 1 µM; at Caspase 7, no less than 1 µM.
In the case of `C[C@H](NC(=O)C(=O)Nc1c(F)cccc1F)C(=O)N[C@H](CCC(=O)O)C(=O)COc1c(F)c(F)cc(F)c1F` [Example 38, (R)-4-((S)-2-(2-((2,6-difluorophenyl)amino)-2-oxoacetamido)propanamido)-5-oxo-6-(2,3,5,6-tetrafluorophenoxy)hexanoic acid], the IC50 against Caspase-1 was no more than 0.01 µM; at Caspase-3, no less than 1 µM; on Caspase 6 it was no less than 1 µM; on Caspase 7, no less than 1 µM.
For the compound `C[C@H](NC(=O)C(=O)Nc1ccccn1)C(=O)N[C@@H](CCC(=O)O)C(=O)COc1c(F)c(F)cc(F)c1F` [Example 39, (S)-5-oxo-4-((S)-2-(2-oxo-2-(pyridin-2-ylamino)acetamido)propanamido)-6-(2,3,5,6-tetrafluorophenoxy)hexanoic acid], the IC50 at Caspase-1 was no more than 0.01 µM; at Caspase-3 it was no less than 1 µM; on Caspase 6, no less than 1 µM; at Caspase 7, no less than 1 µM.
For `C[C@H](NC(=O)C(=O)Nc1cccnc1)C(=O)N[C@@H](CCC(=O)O)C(=O)COc1c(F)c(F)cc(F)c1F` [Example 40, (S)-5-oxo-4-((S)-2-(2-oxo-2-(pyridin-3-ylamino)acetamido)propanamido)-6-(2,3,5,6-tetrafluorophenoxy)hexanoic acid], the IC50 against Caspase-1 was no more than 0.01 µM; on Caspase-3, no less than 1 µM; on Caspase 6, no less than 1 µM; at Caspase 7, no less than 1 µM.
For the compound `Cc1cc(C)nc(NC(=O)C(=O)N[C@@H](C)C(=O)N[C@@H](CCC(=O)O)C(=O)COc2c(F)c(F)cc(F)c2F)n1` [Example 41, (S)-4-((S)-2-(2-((4,6-dimethylpyrimidin-2-yl)amino)-2-oxoacetamido)propanamido)-5-oxo-6-(2,3,5,6-tetrafluorophenoxy)hexanoic acid], the 50% inhibitory concentration (IC50) at Caspase-1 is no more than 0.01 µM; on Caspase-3 it was no less than 1 µM; on Caspase 6, no less than 1 µM; on Caspase 7 it was no less than 1 µM.
For the compound `C[C@H](NC(=O)C(=O)Nc1ncccn1)C(=O)N[C@@H](CCC(=O)O)C(=O)COc1c(F)c(F)cc(F)c1F` [Example 42, (S)-5-oxo-4-((S)-2-(2-oxo-2-(pyrimidin-2-ylamino)acetamido)propanamido)-6-(2,3,5,6-tetrafluorophenoxy)hexanoic acid], the IC50 was no more than 0.01 µM against Caspase-1, no less than 1 µM on Caspase-3, no less than 1 µM on Caspase 6 and no less than 1 µM at Caspase 7.
Turning to `C[C@H](NC(=O)C(=O)Nc1c(F)cccc1F)C(=O)N[C@@H](CC(=O)O)C(=O)COc1c(F)c(F)cc(F)c1F` [IDN-7314, reference compound], the “Percent Inhibition of IL1-β” value in the experiment with IL-1β was “A (A > 90%)”.
